Data: article PMC10770036, “Novel dual inhibitors of PARP and HDAC induce intratumoral STING-mediated antitumor immunity in triple-negative breast cancer” (Cell Death & Disease, 2024)

What was measured:
MDA-MB-436 cells = assay: MTT cell viability assay, MDA-MB-436; conditions: Homo sapiens, MDA-MB-436, 72 h, read-out: IC50 MDA-MB-436
Method: The viability assay was measured by a 3-(4,5-dimethylthiazol-2-yl)−2,5-diphenyltetrazolium bromide (MTT) assay.
In brief, cells were seeded at a density of 6,000 cells in 96-well plates and cultured overnight. […] After aspiration of the medium, the formazan crystals were dissolved in 100 μL of DMSO. The absorbance at 490 nm was measured using a microplate reader (BioTek). All these analyses were performed at least three times.

RAD51 = assay: Western blot of RAD51 expression in TNBC cells; type: cell-based, human; conditions: 2.5 μM compared with the positive controls at 5 μM, 24 h
Method: (§1) Western blot analysis was performed as previously described, and all western blot analyses were performed at least three times.
(§2) Western blot analysis was performed as previously described. Briefly, whole cell or tissue lysates were prepared using ice-cold Nonidet P-40 buffer mixed with protease and phosphatase inhibitors (Roche, IN, USA) and centrifuged at 14,000 × g at 4 °C for 10 min. The protein lysates were fractionated by sodium dodecyl sulfate–polyacrylamide gel electrophoresis (SDS–PAGE) and transferred to polyvinylidene fluoride (PVDF) membranes (Merck, Darmstadt, Germany). Membranes were incubated in 1× TBST buffer containing 5% nonfat powdered milk at room temperature for 2 h. The indicated primary antibody was incubated with PVDF membranes, followed by a washing step using 1× TBST and a secondary antibody conjugated to HRP. Signal detection was carried out using the Western ECL Substrate kit (Bio-Rad, Hercules, CA, USA). […]

TNBC cells = assay: Transwell migration assay; type: cell-based, human; conditions: 48 h, compared with the vehicle
Method: Cell migration and invasion assays were performed using Transwell chambers with 8 μm pores without Matrigel (for migration assay) or with Matrigel (for invasion assay).
Cell migration and invasion assays were performed using Transwell chambers with 8 μm pores (Corning) without Matrigel (for migration assay) or with Matrigel (for invasion assay). MDA-MB-436 and MDA-MB-231 cells were resuspended in serum-free Leibovitz’s L-15 medium and seeded in the upper chamber at a density of 12,000 cells/100 μL. The chambers were incubated in 24-well plates containing Leibovitz’s L-15 medium with 10% FBS and PARP/HDACi or DMSO. After 48 h, the cells were fixed with 4% paraformaldehyde and stained with crystal violet. The cells on the upper surface of the filters were removed by swabbing with a cotton swab, and the images were captured at 5× magnification under an inverted phase contrast microscope (Leica Microsystems).

H3K9 acetylation = assay: Western blot of histone H3 lysine 9 acetylation in TNBC cells; type: cell-based, human; conditions: TNBC cell lines, 48 h
Method: as §1, §2

[1] = system: MDA-MB-436, MDA-MB-231, and 4T1 cell-derived xenografts; assay: Antitumor effect in tumor-bearing mice; type: in vivo; conditions: B102 15 mg/kg or B302 50 mg/kg, intraperitoneal, once daily, versus vehicle
From the text: MDA-MB-436, MDA-MB-231, and 4T1 cells were orthotopically injected into the fat pads of 6- to 7-week-old female NOD-Prkdc^scid Il2rg^em1Smoc (M-NSG), BALB/c nude and BALB/c mice, respectively. Fourteen 6-week-old female MMTV-PyMT mice were divided into two groups. The […] in each group were littermates. All animal procedures were approved by the Institutional Animal Care and Use Committee at Shenzhen University.
MDA-MB-436 cells (5 × 10^6) were suspended in PBS and Matrigel (Corning) at a 1:1 ratio and orthotopically injected into the fat pads of 6- to 7-week-old female NOD-Prkdc^scid Il2rg^em1Smoc (M-NSG) mice from the Shanghai Model Organisms Center, Inc. MDA-MB-231 cells (5 × 10^6) were suspended in PBS orthotopically injected into the fat pads of 6- to 7-week-old female BALB/c nude mice from the Shanghai Model Organisms Center, Inc. 4T1 cells (1 × 10^6) were suspended in PBS and injected into the fat pads of 6- to 7-week-old […] BALB/c mice from GemPharmatech Co., Ltd. When the tumor size reached 100 mm^3, the mice were randomly divided into three treatment groups without blinding: B102 (15 mg/kg), B302 (50 mg/kg) or vehicle [10% N,N-dimethylacetamide (DMAC, Sangon Biotech) and 6% polyethylene glycol 12-hydroxystearate (Solutol HS-15, MedChem Express, Monmouth Junction, NJ, USA) in saline] treatment via an intraperitoneal injection once daily. […]

[2] = system: cGAS–STING signaling pathway; assay: Western blot of cGAS–STING pathway activation; type: cell-based, human; conditions: MDA-MB-436 cells, 48 h
Method: as §1, §2

| IC50 (MDA-MB-436 cells) [nM] | SMILES | inhibitory effect on RAD51 (RAD51) | migration of TNBC cells (TNBC cells) | acetylation of lysine 9 of histone H3 (H3K9) (H3K9 acetylation) | tumor growth [1] | activation of the cGAS–STING signaling pathway [2] |
| --- | --- | --- | --- | --- | --- | --- |
| 160 ± 50 | Nc1cc(F)ccc1NC(=O)/C=C/c1ccc(CN2CCN(C(=O)c3cc(Cc4n[nH]c(=O)c5ccccc45)ccc3F)CC2)cc1 [Compound B102] | more potent inhibitory effect on RAD51 | considerably inhibited the migration | elevated the acetylation | robust inhibition of tumor growth at low doses |  |
| 4120 ± 1020 | Nc1cc(F)ccc1NC(=O)CCc1ccc(CN2CCN(C(=O)c3cc(Cc4n[nH]c(=O)c5ccccc45)ccc3F)CC2)cc1 [Compound B302] |  | considerably inhibited the migration | elevated the acetylation |  | concentration-dependent activation |
